ChEMBL document CHEMBL1147155, “1,4-Dihydroindeno[1,2-c]pyrazoles with acetylenic side chains as novel and potent multitargeted receptor tyrosine kinase inhibitors with low affinity for the hERG ion channel” (J Med Chem, 2007)

Legend:
Type in all cases: ADME, organism-based
[1] = Half life in CD1 mouse at 3 mg/kg, iv; set-up: dose 3 mg/kg, route intravenous; conditions: in vivo
[2] = Clearance in CD1 mouse at 3 mg/kg, iv; set-up: dose 3 mg/kg, route intravenous; conditions: in vivo
[3] = Bioavailability in CD1 mouse at 10 mg/kg, po; conditions: in vivo
[4] = AUC in CD1 mouse at 10 mg/kg, po; set-up: dose 10 mg/kg, route oral; conditions: plasma

C(#Cc1cc(-c2n[nH]c3c2Cc2cc(Cn4cncn4)ccc2-3)cs1)COc1ccccc1
half-life [1]: 3 h | clearance [2]: 41.7 mL/min/kg

CN1CCN(Cc2ccc3c(c2)Cc2c(-c4csc(C#CCNC(=O)c5ccccc5)c4)n[nH]c2-3)CC1
bioavailability [3]: 17% | AUC [4]: 3500 ng·h/mL

CN1CCN(Cc2ccc3c(c2)Cc2c-3n[nH]c2-c2csc(C#CCNC(=O)Nc3ccccc3)c2)CC1
bioavailability [3]: 0%

CN1CCN(Cc2ccc3c(c2)Cc2c-3n[nH]c2-c2csc(C#CCOc3ccccc3)c2)CC1
half-life [1]: 5.5 h | bioavailability [3]: 75%

COCCOCC#Cc1cc(-c2n[nH]c3c2Cc2cc(Cn4cncn4)ccc2-3)cs1
half-life [1]: 0.3 h | clearance [2]: 56.7 mL/min/kg | bioavailability [3]: 22%
